Test results from US20190337978A1, “CRYSTALLIZATION METHODS USING FUNCTIONALIZED NANOPOROUS MATRICES AND RELATED SYSTEMS” (Massachusetts Institute of Technology, priority 2018, published 2019).
Converted amounts (≈) assume the structure as drawn. Where a name gives a salt, the structure may show the parent alone.

Columns and labels:
[1] = Batch crystallization with Zorbax, mother liquor concentration via HPLC; type: physicochemical; conditions: after batch crystallization of saturated isopropyl alcohol solution with Zorbax, stirred 6 h at 25° C.; effective solubility
physchem = conditions: 25 °C, thermodynamic from solid
[2] = Capillary XRPD with Zorbax, critical minimum concentration for crystallization; conditions: isopropyl alcohol solutions in capillaries containing functionalized Zorbax
Description: In order to test this hypothesis, solutions of successively lower concentrations were loaded into capillaries containing the functionalized Zorbax® and tested for the presence of crystals. […] The tubes were made of glass #50, with a 1.0 mm OD, wall thickness of 0.01 mm and length of 80 mm. The capillary tubes were packed with Zorbax® or CPG material by scooping powder into the tip, placing the capillary in a larger diameter glass pipette, and tapping to allow gravity to act on the powder to settle. Once packed, the tubes were suctioned at the open end with a 1-mL plastic syringe, using a small piece of rubber tubing to adapt the fit. The filled capillary was then immediately dipped into the undersaturated API solutions to allow the solution to fill the tube. Molten wax was used to plug the end of the capillary, and the tip was then heated in a Bunsen burner flame to seal. Additional capillaries were filled with the API solution and dry commercial API alone.
To check the hypothesis that there exists a critical minimum undersaturation below which the Zorbax® cannot induce crystallization, solutions of successively decreasing concentrations were tested with the capillary method.

| Structure (SMILES) | Mother liquor concentration [1] [mg/mL] | solubility (physchem; organic solvent or mixture) [mg/mL] | Concentration range from XRPD (critical minimum concentration for crystallization to occur) [2] [µg/mL] | solubility (physchem; water) [mg/mL] |
| --- | --- | --- | --- | --- |
| CC(=O)Oc1ccccc1C(=O)O [Aspirin] | 66.8 | 90 (≈ 500 mM) | 65000 to 70000 |  |
| CN(C)CCOC(c1ccccc1)c1ccccc1 [Diphenhydramine hydrochloride] |  |  | 25000 to 27000 |  |
| NC(=O)c1cccnc1 [Nicotinamide] | 33.2 | 46.5 (≈ 381 mM) | 30000 to 35000 |  |
| CC(=O)Nc1ccc(O)cc1 [Acetaminophen] |  |  |  | 15.5 (≈ 103 mM) |
